Each compound was assayed against P2Y purinoceptor 1 (Homo sapiens, UniProt P47900) (assay: Scintillation Proximity Assay (SPA): A SPA membrane binding assay was used to identify inhibitors of [33P] […] Binding reactions were performed in 384-well OptiPlates (PerkinElmer Life Sciences, Cat #6007299) in a volume of 50 μL containing 15 fmol of P2Y1 receptor (1.7 μg of total protein), 0.3 nM [33P] […] Reactions were allowed to proceed to completion at room temperature for 1 hour followed by centrifugation of the plate for 5 min. About 40 μL of the aqueous solution was aspirated. Plates were sealed and the [33P]).
Sequence of P2Y purinoceptor 1 (P47900 whole entry): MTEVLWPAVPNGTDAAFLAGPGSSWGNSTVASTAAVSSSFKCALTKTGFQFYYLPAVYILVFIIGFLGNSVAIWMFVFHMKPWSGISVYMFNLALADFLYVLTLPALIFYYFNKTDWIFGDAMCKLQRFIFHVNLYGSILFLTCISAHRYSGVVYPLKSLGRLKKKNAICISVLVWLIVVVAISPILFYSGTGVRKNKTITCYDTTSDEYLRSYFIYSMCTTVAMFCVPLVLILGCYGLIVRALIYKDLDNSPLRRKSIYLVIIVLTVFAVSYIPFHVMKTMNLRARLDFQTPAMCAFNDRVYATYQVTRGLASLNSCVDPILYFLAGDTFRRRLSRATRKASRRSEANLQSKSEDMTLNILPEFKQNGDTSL

Question: Which Ki does the source give for `CC1(C)CN(c2ccccc2NC(=O)Nc2ccc(OC(F)(F)F)cc2)c2c(O)cc(F)c(-c3ccc(Cl)s3)c21` here?
Answer: The Ki was 9.5 nM.

Question: `CC1(C)CN(c2ccccc2NC(=O)Nc2ccc(OC(F)(F)F)cc2)c2c(O)c(F)cc(-c3nc4cc(Cl)ccc4s3)c21` was tested. Which Ki did it give?
Answer: Its Ki is 52 nM.

Question: `CC1(C)CN(c2ccccc2NC(=O)Nc2ccc(OC(F)(F)F)cc2)c2c(O)ccc(-c3nc4ccc(Cl)cc4s3)c21` was tested. Which Ki did it give?
Answer: Its Ki is 13 nM.

Question: Which Ki does the source give for `CC1(C)CN(c2ccccc2NC(=O)Nc2csc(Cl)n2)c2c(O)cc(F)c(-c3nc4cc(Cl)ccc4s3)c21` here?
Answer: Its Ki is 13 nM.

Question: For `CC1(C)CN(c2ccccc2NC(=O)Nc2nc3ccc(Cl)nc3s2)c2c(O)cc(F)c(-c3nc4ccc(F)cc4s3)c21`, which Ki is on record?
Answer: The Ki was 16 nM.

Question: `CC1(C)CN(c2ccccc2NC(=O)Nc2nc3ccc(Cl)cc3s2)c2c(O)cc(F)c(-c3nc4cc(Cl)ccc4s3)c21` was tested. Which Ki did it give?
Answer: The Ki was 98 nM.

Question: Which Ki does the source give for `CC1(C)CN(c2ccccc2NC(=O)Nc2nc3ccc(F)cc3s2)c2c(O)cc(F)c(-c3nc4cc(Cl)ccc4s3)c21` here?
Answer: Its Ki is 48 nM.

Question: For `CC1(C)CN(c2ccccc2NC(=O)Nc2nc3ccc(Cl)nc3s2)c2c(O)cc(F)c(-c3nc4cc(Cl)ccc4s3)c21`, which Ki is on record?
Answer: The Ki was 39 nM.

Question: With `COc1cncc(-c2ccc(O)c3c2C(C)(C)CN3c2ccccc2NC(=O)Nc2ccc(OC(F)(F)F)cc2)c1` as the compound, how does the Ki read?
Answer: The Ki was 9.9 nM.

Question: Which Ki does the source give for `CC1(C)CN(c2ccccc2NC(=O)Nc2nc3ccc(Cl)cc3s2)c2c(O)ccc(-c3nc4cc(F)ccc4s3)c21` here?
Answer: The Ki was 17 nM.

Question: How did the Ki turn out when `CC1(C)CN(c2ccccc2NC(=O)Nc2nc3ccc(Cl)nc3s2)c2c(O)cc(F)c(-c3ccc(Cl)s3)c21` was run?
Answer: The Ki was 8.2 nM.

Question: `CC1(C)CN(c2ccccc2NC(=O)Nc2ccc(OC(F)(F)F)cc2)c2c(O)ccc(-c3ccc(F)nc3)c21` was tested. Which Ki did it give?
Answer: Its Ki is 13 nM.

Question: Which Ki does the source give for `CC1(C)CN(c2ccccc2NC(=O)Nc2nc3ccc(F)cc3s2)c2c(O)ccc(-c3nc4ccc(Cl)cc4s3)c21` here?
Answer: Its Ki is 78 nM.

Question: Which Ki does the source give for `CC1(C)CN(c2ccccc2NC(=O)Nc2nc3ccc(Cl)cc3s2)c2c(O)cc(F)c(-c3nc4ccc(F)cc4s3)c21` here?
Answer: The Ki was 90 nM.
